According to ChEMBL document CHEMBL2010773, “Design and synthesis of a vialinin A analog with a potent inhibitory activity of TNF-α production and its transformation into a couple of bioprobes” (Bioorg Med Chem Lett, 2012):
Calls of active or inactive are those of the source. The rule behind the calls is not given here.

Columns and labels:
[1] = system: Radical scavenging activity; test: Antioxidant activity assessed as DPPH radical scavenging activity after 30 mins by spectrophotometry; assay type: functional
RBL-2H3 [2] = test: Antiinflammatory activity in rat RBL2H3 cells assessed as inhibition of DNP-BSA-induced TNF-alpha production preincubated for 15 mins prior DNP-BSA challenge measured after 30 mins by ELISA; assay type: functional, cell-based
RBL-2H3 [3] = test: Antiinflammatory activity in rat RBL2H3 cells assessed as inhibition of DNP-BSA-induced TNF-alpha production at 1 nM preincubated for 15 mins prior DNP-BSA challenge measured after 30 mins by ELISA; assay type: functional, cell-based

| Compound | EC50 [1] | IC50 (RBL-2H3 [2]) | inhibition (RBL-2H3 [3]) |
| --- | --- | --- | --- |
| O=C(Cc1ccccc1)Oc1c(OC(=O)Cc2ccccc2)c(-c2ccc(O)cc2)c(O)c(O)c1-c1ccc(O)cc1 [VIALININ A] | 14 µM | 0.09 nM | – |
| Cc1c(C)c(-c2ccc(OCc3cn(CCCCCCNC(=O)CCCC[C@@H]4SC[C@@H]5NC(=O)N[C@@H]54)nn3)cc2)c(O)c(O)c1-c1ccc(O)cc1 | – | 8.15 nM | – |
| COCOc1c(OCOC)c(-c2ccc(O)cc2)c(C)c(C)c1-c1ccc(O)cc1 | – | 0.32 nM | Active |
| COc1ccc2c(COC(=O)CCCCCn3cc(COc4ccc(-c5c(C)c(C)c(-c6ccc(O)cc6)c(O)c5O)cc4)nn3)cc(=O)oc2c1 | – | 0.55 nM | – |
| Cc1c(C)c(-c2ccc(O)cc2)c(O)c(O)c1-c1ccc(O)cc1 | – | 0.02 nM | – |
